Laboratory results from PubChem BioAssay AID2060904 (Molecular Pharmacology Branch, DTP, NCI, 2025).

Tested on: 349418-098-R-PDC complex spheroid viability
Test: Anticancer human tumor 349418-098-R-PDC patient-derived lung adenocarcinoma cell line growth inhibition [RAS]
Conditions: for IC50: curve of first compound; for viability, T/C: stronger effect = lower value
How it was run: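 Multi-cell-type spheroids: tumor cells plus HUVEC endothelial cells and mesenchymal stem cells. RAS-pathway inhibitors were combined with targeted agents, each dosed in half-log steps down from clinical Cmax, or from 10 microM when Cmax was unknown.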

[1] = second compound 0.000949 µM, first compound 0.00316 µM
[2] = second compound 0.000949 µM, first compound 0.01 µM
[3] = second compound 0.000949 µM, first compound 0.0316 µM
[4] = second compound 0.000949 µM, first compound 0.1 µM
[5] = second compound 0.000949 µM, first compound 0.316 µM
[6] = second compound 0.000949 µM, first compound 1 µM
[7] = second compound 0.003 µM, first compound 0.00316 µM
[8] = second compound 0.003 µM, first compound 0.01 µM
[9] = second compound 0.003 µM, first compound 0.0316 µM
[10] = second compound 0.003 µM, first compound 0.1 µM
[11] = second compound 0.003 µM, first compound 0.316 µM
[12] = second compound 0.003 µM, first compound 1 µM
[13] = second compound 0.00949 µM, first compound 0.00316 µM
[14] = second compound 0.00949 µM, first compound 0.01 µM
[15] = second compound 0.00949 µM, first compound 0.0316 µM
[16] = second compound 0.00949 µM, first compound 0.1 µM
[17] = second compound 0.00949 µM, first compound 0.316 µM
[18] = second compound 0.00949 µM, first compound 1 µM
[19] = second compound 0.03 µM, first compound 0.00316 µM
[20] = second compound 0.03 µM, first compound 0.01 µM
[21] = second compound 0.03 µM, first compound 0.0316 µM
[22] = second compound 0.03 µM, first compound 0.1 µM
[23] = second compound 0.03 µM, first compound 0.316 µM
[24] = second compound 0.03 µM, first compound 1 µM
[25] = second compound 0.0949 µM, first compound 0.00316 µM
[26] = second compound 0.0949 µM, first compound 0.01 µM
[27] = second compound 0.0949 µM, first compound 0.0316 µM
[28] = second compound 0.0949 µM, first compound 0.1 µM
[29] = second compound 0.0949 µM, first compound 0.316 µM
[30] = second compound 0.0949 µM, first compound 1 µM
[31] = second compound 0.3 µM, first compound 0.00316 µM
[32] = second compound 0.3 µM, first compound 0.01 µM
[33] = second compound 0.3 µM, first compound 0.0316 µM
[34] = second compound 0.3 µM, first compound 0.1 µM
[35] = second compound 0.3 µM, first compound 0.316 µM
[36] = second compound 0.3 µM, first compound 1 µM
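Note: spheroids exposed to compound for seven days before viability readout.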

## O=C(c1ccc(F)c(F)c1Nc1ccc(I)cc1F)N1CC(O)([C@@H]2CCCCN2)C1 + CCn1c(-c2cccnc2C(C)OC)c2c3cc(ccc31)N1CCOC(CC(NC(=O)C(C(C)C)N(C)C(=O)C3(F)CCN(C(=O)C#CC(C)(C)N(C)C)CC3)C(=O)N3CCCC(N3)C(=O)OCC(C)(C)C2)C1
Second compound 0.000949 µM
  IC50: < 3.16 nM
Second compound 0.003 µM
  IC50: < 3.16 nM
Second compound 0.00949 µM
  IC50: < 3.16 nM
Second compound 0.03 µM
  IC50: < 3.16 nM
Second compound 0.0949 µM
  IC50: < 3.16 nM
Second compound 0.3 µM
  IC50: < 3.16 nM
[1]
  viability, T/C: 26.5%
[2]
  viability, T/C: 22.8%
[3]
  viability, T/C: 15.6%
[4]
  viability, T/C: 12.7%
[5]
  viability, T/C: 7.76%
[6]
  viability, T/C: 5.98%
[7]
  viability, T/C: 29.4%
[8]
  viability, T/C: 24.1%
[9]
  viability, T/C: 17.2%
[10]
  viability, T/C: 11.3%
[11]
  viability, T/C: 6.93%
[12]
  viability, T/C: 5.43%
[13]
  viability, T/C: 28.6%
[14]
  viability, T/C: 17.8%
[15]
  viability, T/C: 14.9%
[16]
  viability, T/C: 10.6%
[17]
  viability, T/C: 7.5%
[18]
  viability, T/C: 6.07%
[19]
  viability, T/C: 30.2%
[20]
  viability, T/C: 14.9%
[21]
  viability, T/C: 15.8%
[22]
  viability, T/C: 12%
[23]
  viability, T/C: 7.23%
[24]
  viability, T/C: 5.04%
[25]
  viability, T/C: 27.1%
[26]
  viability, T/C: 17.5%
[27]
  viability, T/C: 13.2%
[28]
  viability, T/C: 10.3%
[29]
  viability, T/C: 6.84%
[30]
  viability, T/C: 5.79%
[31]
  viability, T/C: 30.1%
[32]
  viability, T/C: 15.8%
[33]
  viability, T/C: 12.9%
[34]
  viability, T/C: 11.1%
[35]
  viability, T/C: 7.31%
[36]
  viability, T/C: 5.8%

## CCN1CCN(Cc2ccc(Nc3ncc(F)c(-c4cc(F)c5nc(C)n(C(C)C)c5c4)n3)nc2)CC1 + CCn1c(-c2cccnc2C(C)OC)c2c3cc(ccc31)N1CCOC(CC(NC(=O)C(C(C)C)N(C)C(=O)C3(F)CCN(C(=O)C#CC(C)(C)N(C)C)CC3)C(=O)N3CCCC(N3)C(=O)OCC(C)(C)C2)C1
Second compound 0.000949 µM
  IC50: 12 nM
Second compound 0.003 µM
  IC50: 14.7 nM
Second compound 0.00949 µM
  IC50: 13.6 nM
Second compound 0.03 µM
  IC50: 8.64 nM
Second compound 0.0949 µM
  IC50: 9.8 nM
Second compound 0.3 µM
  IC50: 7.33 nM
[1]
  viability, T/C: 80.1%
[2]
  viability, T/C: 54.1%
[3]
  viability, T/C: 30.6%
[4]
  viability, T/C: 22.5%
[5]
  viability, T/C: 18.7%
[6]
  viability, T/C: 13.1%
[7]
  viability, T/C: 85.5%
[8]
  viability, T/C: 61%
[9]
  viability, T/C: 28%
[10]
  viability, T/C: 20.3%
[11]
  viability, T/C: 16.8%
[12]
  viability, T/C: 13.4%
[13]
  viability, T/C: 96%
[14]
  viability, T/C: 52.2%
[15]
  viability, T/C: 39.1%
[16]
  viability, T/C: 22.3%
[17]
  viability, T/C: 16.1%
[18]
  viability, T/C: 14.7%
[19]
  viability, T/C: 80.5%
[20]
  viability, T/C: 44.6%
[21]
  viability, T/C: 29%
[22]
  viability, T/C: 21.5%
[23]
  viability, T/C: 15.9%
[24]
  viability, T/C: 14.4%
[25]
  viability, T/C: 73.4%
[26]
  viability, T/C: 48.7%
[27]
  viability, T/C: 34.5%
[28]
  viability, T/C: 16.6%
[29]
  viability, T/C: 20.6%
[30]
  viability, T/C: 12.5%
[31]
  viability, T/C: 61.5%
[32]
  viability, T/C: 45.5%
[33]
  viability, T/C: 33.2%
[34]
  viability, T/C: 21.4%
[35]
  viability, T/C: 19%
[36]
  viability, T/C: 13.5%

## CC(C)n1nc(-c2ccc3oc(N)nc3c2)c2c(N)ncnc21 + CCn1c(-c2cccnc2C(C)OC)c2c3cc(ccc31)N1CCOC(CC(NC(=O)C(C(C)C)N(C)C(=O)C3(F)CCN(C(=O)C#CC(C)(C)N(C)C)CC3)C(=O)N3CCCC(N3)C(=O)OCC(C)(C)C2)C1
Second compound 0.000949 µM
  IC50: 1.3 nM
Second compound 0.003 µM
  IC50: 2.1 nM
Second compound 0.00949 µM
  IC50: 2.58 nM
Second compound 0.03 µM
  IC50: 2.86 nM
Second compound 0.0949 µM
  IC50: 1.42 nM
Second compound 0.3 µM
  IC50: 1.48 nM
Second compound 0.000949 µM, first compound 0.000316 µM
  viability, T/C: 97.3%
Second compound 0.000949 µM, first compound 0.001 µM
  viability, T/C: 54.3%
[1]
  viability, T/C: 33.3%
[2]
  viability, T/C: 10.8%
[3]
  viability, T/C: 6.42%
[4]
  viability, T/C: 5.48%
Second compound 0.003 µM, first compound 0.000316 µM
  viability, T/C: 91.7%
Second compound 0.003 µM, first compound 0.001 µM
  viability, T/C: 70.3%
[7]
  viability, T/C: 39.7%
[8]
  viability, T/C: 12.8%
[9]
  viability, T/C: 6.14%
[10]
  viability, T/C: 5.04%
Second compound 0.00949 µM, first compound 0.000316 µM
  viability, T/C: 91.2%
Second compound 0.00949 µM, first compound 0.001 µM
  viability, T/C: 82.2%
[13]
  viability, T/C: 42.7%
[14]
  viability, T/C: 13.9%
[15]
  viability, T/C: 6.63%
[16]
  viability, T/C: 5.25%
Second compound 0.03 µM, first compound 0.000316 µM
  viability, T/C: 98.7%
Second compound 0.03 µM, first compound 0.001 µM
  viability, T/C: 81.4%
[19]
  viability, T/C: 47.7%
[20]
  viability, T/C: 16.8%
[21]
  viability, T/C: 6.13%
[22]
  viability, T/C: 5.01%
Second compound 0.0949 µM, first compound 0.000316 µM
  viability, T/C: 90.4%
Second compound 0.0949 µM, first compound 0.001 µM
  viability, T/C: 55.9%
[25]
  viability, T/C: 35.7%
[26]
  viability, T/C: 13.3%
[27]
  viability, T/C: 7.14%
[28]
  viability, T/C: 4.64%
Second compound 0.3 µM, first compound 0.000316 µM
  viability, T/C: 67.4%
Second compound 0.3 µM, first compound 0.001 µM
  viability, T/C: 64.7%
[31]
  viability, T/C: 22%
[32]
  viability, T/C: 10.9%
[33]
  viability, T/C: 6.85%
[34]
  viability, T/C: 4.69%
